ChEMBL document CHEMBL1201862, “PubChem BioAssay data set” (2004)
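Cells were grown in 96-well plates and exposed to each compound for 48 hours at five concentrations; endpoints were interpolated linearly between bracketing concentrations, or set to the highest concentration if not reached. Abbreviation: GI50, concentration required for 50% inhibition of growth.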 Active and inactive are the calls of the source. Rule as the data show it: active = GI50 up to about 1.1 µM and inactive = higher.

Tests used:
Assay in all cases: NCI tumour cell line growth inhibition, 48 h
SF-295 = system: SF-295
SNB-75 = system: SNB-75
NCI-H23 = system: NCI-H23
NCI-H226 = system: NCI-H226
K562 = system: K562
RXF 393 = system: RXF 393
SF-268 = system: SF-268
SNB-19 = system: SNB-19
EKVX = system: EKVX
SN12C = system: SN12C
UACC-257 = system: UACC-257
OVCAR-3 = system: OVCAR-3
MOLT-4 = system: MOLT-4
M14 = system: M14
CCRF-CEM = system: CCRF-CEM
OVCAR-4 = system: OVCAR-4
A498 = system: A498
LOX IMVI = system: LOX IMVI
HOP-92 = system: HOP-92

| SMILES | GI50 (SF-295) | GI50 (SNB-75) | GI50 (NCI-H23) | GI50 (NCI-H226) | GI50 (K562) | GI50 (RXF 393) | GI50 (SF-268) | GI50 (SNB-19) | GI50 (EKVX) | GI50 (SN12C) | GI50 (UACC-257) | GI50 (OVCAR-3) | GI50 (MOLT-4) | GI50 (M14) | GI50 (CCRF-CEM) | GI50 (OVCAR-4) | GI50 (A498) | GI50 (LOX IMVI) | GI50 (HOP-92) |
| --- | --- | --- | --- | --- | --- | --- | --- | --- | --- | --- | --- | --- | --- | --- | --- | --- | --- | --- | --- |
| CCOC(=O)c1ccc(N2C(=O)Cc3ccccc3C2=O)cc1 | > 100 µM (inactive) | > 100 µM (inactive) | > 100 µM (inactive) | > 100 µM (inactive) | > 100 µM (inactive) | > 100 µM (inactive) | > 100 µM (inactive) | > 100 µM (inactive) | > 100 µM (inactive) | > 100 µM (inactive) | > 100 µM (inactive) | > 100 µM (inactive) | > 100 µM (inactive) |  |  |  |  |  |  |
| COc1ccc2nc3cc(Cl)ccc3c(Sc3ccc(NC(C)=O)cc3)c2c1 | > 25.9 µM (inactive) | > 24 µM (inactive) | 13.8 µM (inactive) |  | 9.71 µM (inactive) | 12.6 µM (inactive) |  |  |  | 14.9 µM (inactive) | 17.4 µM (inactive) |  | 6.87 µM (inactive) | 11.6 µM (inactive) | 9.18 µM (inactive) | > 24.4 µM (inactive) | > 41.7 µM (inactive) | 5.73 µM (inactive) |  |
| CN(C)CCCNC(=O)c1cccc2ccccc12 | > 100 µM (inactive) | > 100 µM (inactive) | > 100 µM (inactive) | > 100 µM (inactive) | > 100 µM (inactive) | > 100 µM (inactive) | > 100 µM (inactive) | > 100 µM (inactive) |  | > 100 µM (inactive) | > 100 µM (inactive) | > 100 µM (inactive) | > 100 µM (inactive) |  | > 100 µM (inactive) | > 100 µM (inactive) |  | > 100 µM (inactive) |  |
| CCC1CCc2c(c(=O)oc3c2cc(OC)c2cccc(OC)c23)C1 (stereo not given) | 32.6 µM (inactive) | 55.8 µM (inactive) | 57.1 µM (inactive) | > 100 µM (inactive) | 40.9 µM (inactive) | 21.7 µM (inactive) | 90.2 µM (inactive) | > 100 µM (inactive) | > 100 µM (inactive) | > 100 µM (inactive) | 67.1 µM (inactive) |  | 23.2 µM (inactive) | > 100 µM (inactive) | 28.3 µM (inactive) | 76 µM (inactive) | > 100 µM (inactive) |  |  |
| NC(CCC(=O)NC(CSSCCCCS(=O)O)C(=O)NCC(=O)O)C(=O)O (stereo not given) | > 100 µM (inactive) | 23.4 µM (inactive) | > 100 µM (inactive) |  | > 100 µM (inactive) | > 100 µM (inactive) | > 100 µM (inactive) | > 100 µM (inactive) | > 100 µM (inactive) | > 100 µM (inactive) | > 100 µM (inactive) | > 100 µM (inactive) | 29.5 µM (inactive) | > 100 µM (inactive) | > 100 µM (inactive) | > 100 µM (inactive) | > 100 µM (inactive) | > 100 µM (inactive) |  |
| COc1ccc(C2C(Cl)C(=O)N2NC(=O)c2ccccc2O)cc1OC (stereo not given) | 51.8 µM (inactive) |  | > 100 µM (inactive) | > 100 µM (inactive) | 50.2 µM (inactive) | > 100 µM (inactive) | 54.2 µM (inactive) | > 100 µM (inactive) |  | > 100 µM (inactive) | 93.8 µM (inactive) | 75.9 µM (inactive) | 42.5 µM (inactive) | > 100 µM (inactive) | 31.6 µM (inactive) | 75.9 µM (inactive) | > 100 µM (inactive) | 36.5 µM (inactive) |  |
| CCCCCCCCC/C=C1\CCC(CN(C)C)C1=O (stereo not given) | 3.22 µM (inactive) | 2.37 µM (inactive) | 2.44 µM (inactive) | 9.51 µM (inactive) | 1.86 µM (inactive) |  | 1.97 µM (inactive) | 5.87 µM (inactive) | 2.47 µM (inactive) | 2.08 µM (inactive) | 1.69 µM (inactive) |  | 2.62 µM (inactive) | 1.84 µM (inactive) | 0.721 µM (active) |  | 2.48 µM (inactive) | 1.22 µM (inactive) | 2.13 µM (inactive) |
| O=C(O)C(CS)NCc1c2ccccc2nc2ccccc12 (stereo not given) | 43.2 µM (inactive) | 65.8 µM (inactive) | 37.8 µM (inactive) | > 100 µM (inactive) | 26.1 µM (inactive) | 24.2 µM (inactive) | 40.7 µM (inactive) | 58.6 µM (inactive) | 38.5 µM (inactive) | 34.2 µM (inactive) | 57.8 µM (inactive) | 38.9 µM (inactive) | 15.3 µM (inactive) |  | 19 µM (inactive) | 12.9 µM (inactive) |  | 30.5 µM (inactive) | 25.9 µM (inactive) |
| CCN(CC)c1ccc2cc(C(=O)Nc3ccccc3OC)c(=N)oc2c1 | 33.9 µM (inactive) |  | 20.4 µM (inactive) |  | 18.5 µM (inactive) |  | 8.15 µM (inactive) | 16.1 µM (inactive) | 32.8 µM (inactive) |  | 40.8 µM (inactive) | 43.2 µM (inactive) | 3.24 µM (inactive) | 35.2 µM (inactive) | 2.89 µM (inactive) | 27.5 µM (inactive) | 31.3 µM (inactive) | 22.9 µM (inactive) |  |
| COc1ccc2ccccc2c1C1=NC(C)(C)CO1 | > 100 µM (inactive) | > 100 µM (inactive) | > 100 µM (inactive) | > 100 µM (inactive) | > 100 µM (inactive) | > 100 µM (inactive) | > 100 µM (inactive) | > 100 µM (inactive) | > 100 µM (inactive) | > 100 µM (inactive) | > 100 µM (inactive) | > 100 µM (inactive) | > 100 µM (inactive) | > 100 µM (inactive) | > 100 µM (inactive) | > 100 µM (inactive) |  |  | 98.9 µM (inactive) |
| O=C1c2ccccc2C(=O)c2[nH]c(Cc3ccccc3F)nc21 | 59.2 µM (inactive) | 50.7 µM (inactive) | 27.7 µM (inactive) | 48.2 µM (inactive) | > 100 µM (inactive) | 20.2 µM (inactive) | 40.7 µM (inactive) | 38.5 µM (inactive) | > 100 µM (inactive) | > 100 µM (inactive) | 44.9 µM (inactive) | 14.5 µM (inactive) | 89.7 µM (inactive) | 84.1 µM (inactive) | > 100 µM (inactive) | 28.1 µM (inactive) |  |  | 68.1 µM (inactive) |
| Cc1ccc(-c2nc3ccccc3c(=O)n2NC2OC(CO)C(O)C(O)C2O)cc1 (stereo not given) | > 100 µM (inactive) | > 100 µM (inactive) | > 100 µM (inactive) | > 100 µM (inactive) | > 100 µM (inactive) |  | > 100 µM (inactive) | > 100 µM (inactive) | > 100 µM (inactive) | > 100 µM (inactive) | > 100 µM (inactive) | > 100 µM (inactive) | > 100 µM (inactive) | > 100 µM (inactive) | > 100 µM (inactive) | > 100 µM (inactive) | > 100 µM (inactive) |  | > 100 µM (inactive) |
| O=C1C2=C(CCC2)Nc2cccc3ncn1c23 | > 100 µM (inactive) |  | 51.6 µM (inactive) |  | > 100 µM (inactive) | 96.4 µM (inactive) | > 100 µM (inactive) | > 100 µM (inactive) | > 100 µM (inactive) | 55.1 µM (inactive) | 64.7 µM (inactive) |  | > 100 µM (inactive) |  | > 100 µM (inactive) |  |  | 24.5 µM (inactive) |  |
| CN(C)c1ccc(/C=C/C=C\c2cc(/C=C/C=C/c3ccc(N(C)C)cc3)[s+]c3ccccc23)cc1.[O-][Cl+3]([O-])([O-])[O-] | > 100 µM (inactive) | > 100 µM (inactive) | 10 µM (inactive) | > 100 µM (inactive) | > 100 µM (inactive) | 13.1 µM (inactive) | > 100 µM (inactive) | > 100 µM (inactive) | > 100 µM (inactive) | > 100 µM (inactive) | 59.4 µM (inactive) | 31.8 µM (inactive) | > 100 µM (inactive) | 14.5 µM (inactive) |  | 10 µM (inactive) | > 100 µM (inactive) | 20.1 µM (inactive) |  |
| O=S(=O)(/C=C/c1ccc(F)cc1)Cc1ccc(CS(=O)(=O)/C=C/c2ccc(F)cc2)cc1 | > 100 µM (inactive) | > 100 µM (inactive) | > 100 µM (inactive) | > 100 µM (inactive) | > 100 µM (inactive) | > 100 µM (inactive) | > 100 µM (inactive) | > 100 µM (inactive) | > 100 µM (inactive) | > 100 µM (inactive) | > 100 µM (inactive) | > 100 µM (inactive) | > 100 µM (inactive) | > 100 µM (inactive) | > 100 µM (inactive) | > 100 µM (inactive) |  | > 100 µM (inactive) | > 100 µM (inactive) |
| [N-]=[N+]=Nc1c(Br)c(=O)[nH]c(=O)n1COCCO | > 100 µM (inactive) | 86.1 µM (inactive) | > 100 µM (inactive) |  | > 100 µM (inactive) | > 100 µM (inactive) | > 100 µM (inactive) | > 100 µM (inactive) |  | > 100 µM (inactive) | > 100 µM (inactive) | > 100 µM (inactive) | > 100 µM (inactive) | > 100 µM (inactive) | 63.4 µM (inactive) | > 100 µM (inactive) |  | > 100 µM (inactive) | > 100 µM (inactive) |
| O=C(CC(=O)N1N=C(c2ccccc2)C(/N=N/c2ccc(Cl)cc2)C1=O)Nc1ccccc1Cl (stereo not given) |  | 16.4 µM (inactive) | 29.4 µM (inactive) | 19 µM (inactive) | 36.7 µM (inactive) |  | 22.5 µM (inactive) | 21.2 µM (inactive) | 27.6 µM (inactive) | 92 µM (inactive) |  | 24.3 µM (inactive) | 33 µM (inactive) | 28.1 µM (inactive) |  | 16 µM (inactive) | > 10 µM (inactive) | 26.2 µM (inactive) |  |
